Laboratory results taken from PubChem BioAssay AID1918954 (Molecular Pharmacology Branch, DTP, NCI, 2023).

Test system: MDA-MB-468 complex spheroids with HUVEC/MSC, viability
Test: Anticancer human tumor MDA-MB-468 cell line growth inhibition;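 also: spheroids exposed to agents for seven days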;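 as to viability, T/C: 100% = DMSO vehicle control viability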
Details: for IC50: curve of first compound; for viability, T/C: stronger effect = lower value
Summary of the method: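 Drug combinations with the LSD1 inhibitor iadademstat tested on tumor cells co-cultured as spheroids with endothelial cells and mesenchymal stem cells. Concentrations descended in half-log increments from clinical Cmax or 10 microM.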

[1] = second compound 0.1 µM, first compound 0.00949 µM
[2] = second compound 0.1 µM, first compound 0.03 µM
[3] = second compound 0.1 µM, first compound 0.0949 µM
[4] = second compound 0.1 µM, first compound 0.3 µM
[5] = second compound 0.1 µM, first compound 0.949 µM
[6] = second compound 0.1 µM, first compound 3 µM
[7] = second compound 0.316 µM, first compound 0.00949 µM
[8] = second compound 0.316 µM, first compound 0.03 µM
[9] = second compound 0.316 µM, first compound 0.0949 µM
[10] = second compound 0.316 µM, first compound 0.3 µM
[11] = second compound 0.316 µM, first compound 0.949 µM
[12] = second compound 0.316 µM, first compound 3 µM
[13] = second compound 1 µM, first compound 0.00949 µM
[14] = second compound 1 µM, first compound 0.03 µM
[15] = second compound 1 µM, first compound 0.0949 µM
[16] = second compound 1 µM, first compound 0.3 µM
[17] = second compound 1 µM, first compound 0.949 µM
[18] = second compound 1 µM, first compound 3 µM
[19] = second compound 3.16 µM, first compound 0.00949 µM
[20] = second compound 3.16 µM, first compound 0.03 µM
[21] = second compound 3.16 µM, first compound 0.0949 µM
[22] = second compound 3.16 µM, first compound 0.3 µM
[23] = second compound 3.16 µM, first compound 0.949 µM
[24] = second compound 3.16 µM, first compound 3 µM
[25] = second compound 10 µM, first compound 0.00949 µM
[26] = second compound 10 µM, first compound 0.03 µM
[27] = second compound 10 µM, first compound 0.0949 µM
[28] = second compound 10 µM, first compound 0.3 µM
[29] = second compound 10 µM, first compound 0.949 µM
[30] = second compound 10 µM, first compound 3 µM
[31] = second compound 0.1 µM, first compound 0.0316 µM
[32] = second compound 0.1 µM, first compound 0.1 µM
[33] = second compound 0.316 µM, first compound 0.0316 µM
[34] = second compound 0.316 µM, first compound 0.1 µM
[35] = second compound 1 µM, first compound 0.0316 µM
[36] = second compound 1 µM, first compound 0.1 µM
[37] = second compound 3.16 µM, first compound 0.0316 µM
[38] = second compound 3.16 µM, first compound 0.1 µM
[39] = second compound 10 µM, first compound 0.0316 µM
[40] = second compound 10 µM, first compound 0.1 µM

SMILES: Nc1ccccc1NC(=O)c1ccc(CNC(=O)OCc2cccnc2)cc1 + NC1CCC(NC2CC2c2ccccc2)CC1
- IC50 (second compound 0.1 µM): 170 nM
- IC50 (second compound 0.316 µM): 140 nM
- IC50 (second compound 1 µM): 127 nM
- IC50 (second compound 3.16 µM): 143 nM
- IC50 (second compound 10 µM): 111 nM
- viability, T/C [1]: 97.4%
- viability, T/C [2]: 106%
- viability, T/C [3]: 87.2%
- viability, T/C [4]: 13.9%
- viability, T/C [5]: 3.13%
- viability, T/C [6]: 1.48%
- viability, T/C [7]: 102%
- viability, T/C [8]: 103%
- viability, T/C [9]: 67.7%
- viability, T/C [10]: 14.6%
- viability, T/C [11]: 3.32%
- viability, T/C [12]: 0.9%
- viability, T/C [13]: 89.1%
- viability, T/C [14]: 90.3%
- viability, T/C [15]: 61.2%
- viability, T/C [16]: 15.9%
- viability, T/C [17]: 2.93%
- viability, T/C [18]: 1.42%
- viability, T/C [19]: 80.8%
- viability, T/C [20]: 83.7%
- viability, T/C [21]: 69.6%
- viability, T/C [22]: 14.9%
- viability, T/C [23]: 3.07%
- viability, T/C [24]: 1.04%
- viability, T/C [25]: 59.9%
- viability, T/C [26]: 61%
- viability, T/C [27]: 56%
- viability, T/C [28]: 13.4%
- viability, T/C [29]: 3.05%
- viability, T/C [30]: 1.52%

SMILES: Nc1ccccc1NC(=O)c1ccc(CNC(=O)OCc2cccnc2)cc1 + NC1CC1c1ccc(-c2cccc(O)c2)cc1
- IC50 (second compound 0.1 µM): 66.3 nM
- IC50 (second compound 0.316 µM): 61.8 nM
- IC50 (second compound 1 µM): 56.8 nM
- IC50 (second compound 3.16 µM): 60.5 nM
- IC50 (second compound 10 µM): 48.2 nM
- viability, T/C [1]: 101%
- viability, T/C [2]: 90.5%
- viability, T/C [3]: 31.8%
- viability, T/C [4]: 2.33%
- viability, T/C [5]: 0.21%
- viability, T/C [6]: 0.17%
- viability, T/C [7]: 90.7%
- viability, T/C [8]: 86.1%
- viability, T/C [9]: 28.6%
- viability, T/C [10]: 2.63%
- viability, T/C [11]: 0.2%
- viability, T/C [12]: 0.15%
- viability, T/C [13]: 108%
- viability, T/C [14]: 78.6%
- viability, T/C [15]: 27.5%
- viability, T/C [16]: 2.4%
- viability, T/C [17]: 0.19%
- viability, T/C [18]: 0.13%
- viability, T/C [19]: 92%
- viability, T/C [20]: 88%
- viability, T/C [21]: 25.7%
- viability, T/C [22]: 2.56%
- viability, T/C [23]: 0.16%
- viability, T/C [24]: 0.14%
- viability, T/C [25]: 72.1%
- viability, T/C [26]: 68.1%
- viability, T/C [27]: 24.5%
- viability, T/C [28]: 2.72%
- viability, T/C [29]: 0.24%
- viability, T/C [30]: 0.2%

SMILES: O=C(c1cc(Cc2n[nH]c(=O)c3ccccc23)ccc1F)N1CCN(C(=O)C2CC2)CC1 + NC1CC1c1ccc(-c2cccc(O)c2)cc1
- IC50 (second compound 0.1 µM): 909 nM
- IC50 (second compound 0.316 µM): 840 nM
- IC50 (second compound 1 µM): 645 nM
- IC50 (second compound 3.16 µM): 677 nM
- IC50 (second compound 10 µM): 144 nM
- viability, T/C [31]: 93.6%
- viability, T/C [32]: 88.1%
- viability, T/C (second compound 0.1 µM, first compound 0.316 µM): 70.5%
- viability, T/C (second compound 0.1 µM, first compound 1 µM): 52.7%
- viability, T/C (second compound 0.1 µM, first compound 3.16 µM): 18.6%
- viability, T/C (second compound 0.1 µM, first compound 10 µM): 14.2%
- viability, T/C [33]: 88.6%
- viability, T/C [34]: 88.2%
- viability, T/C (second compound 0.316 µM, first compound 0.316 µM): 76%
- viability, T/C (second compound 0.316 µM, first compound 1 µM): 46.2%
- viability, T/C (second compound 0.316 µM, first compound 3.16 µM): 16.2%
- viability, T/C (second compound 0.316 µM, first compound 10 µM): 11.9%
- viability, T/C [35]: 98.2%
- viability, T/C [36]: 82.3%
- viability, T/C (second compound 1 µM, first compound 0.316 µM): 66.7%
- viability, T/C (second compound 1 µM, first compound 1 µM): 43.4%
- viability, T/C (second compound 1 µM, first compound 3.16 µM): 13.9%
- viability, T/C (second compound 1 µM, first compound 10 µM): 8.61%
- viability, T/C [37]: 82%
- viability, T/C [38]: 75.4%
- viability, T/C (second compound 3.16 µM, first compound 0.316 µM): 72.5%
- viability, T/C (second compound 3.16 µM, first compound 1 µM): 38.7%
- viability, T/C (second compound 3.16 µM, first compound 3.16 µM): 12.5%
- viability, T/C (second compound 3.16 µM, first compound 10 µM): 7.33%
- viability, T/C [39]: 63%
- viability, T/C [40]: 51.4%
- viability, T/C (second compound 10 µM, first compound 0.316 µM): 43.6%
- viability, T/C (second compound 10 µM, first compound 1 µM): 26.6%
- viability, T/C (second compound 10 µM, first compound 3.16 µM): 13.8%
- viability, T/C (second compound 10 µM, first compound 10 µM): 8.66%

SMILES: CC(C)CC(NC(=O)CNC(=O)c1cc(Cl)ccc1Cl)B1OC(=O)CC(CC(=O)O)(C(=O)O)O1 (stereo not given) + NC1CC1c1ccc(-c2cccc(O)c2)cc1
- IC50 (second compound 0.1 µM): 2.57 nM
- IC50 (second compound 0.316 µM): 2.49 nM
- IC50 (second compound 1 µM): 2.74 nM
- IC50 (second compound 3.16 µM): 2.32 nM
- IC50 (second compound 10 µM): 1.54 nM
- viability, T/C (second compound 0.1 µM, first compound 0.000316 µM): 111%
- viability, T/C (second compound 0.1 µM, first compound 0.001 µM): 106%
- viability, T/C (second compound 0.1 µM, first compound 0.00316 µM): 37.6%
- viability, T/C (second compound 0.1 µM, first compound 0.01 µM): 4.72%
- viability, T/C [31]: 0.18%
- viability, T/C [32]: 0.16%
- viability, T/C (second compound 0.316 µM, first compound 0.000316 µM): 118%
- viability, T/C (second compound 0.316 µM, first compound 0.001 µM): 94.2%
- viability, T/C (second compound 0.316 µM, first compound 0.00316 µM): 39%
- viability, T/C (second compound 0.316 µM, first compound 0.01 µM): 5.32%
- viability, T/C [33]: 0.16%
- viability, T/C [34]: 0.15%
- viability, T/C (second compound 1 µM, first compound 0.000316 µM): 105%
- viability, T/C (second compound 1 µM, first compound 0.001 µM): 109%
- viability, T/C (second compound 1 µM, first compound 0.00316 µM): 41.8%
- viability, T/C (second compound 1 µM, first compound 0.01 µM): 5.14%
- viability, T/C [35]: 0.2%
- viability, T/C [36]: 0.14%
- viability, T/C (second compound 3.16 µM, first compound 0.000316 µM): 106%
- viability, T/C (second compound 3.16 µM, first compound 0.001 µM): 100%
- viability, T/C (second compound 3.16 µM, first compound 0.00316 µM): 31.4%
- viability, T/C (second compound 3.16 µM, first compound 0.01 µM): 5.19%
- viability, T/C [37]: 0.17%
- viability, T/C [38]: 0.14%
- viability, T/C (second compound 10 µM, first compound 0.000316 µM): 71.4%
- viability, T/C (second compound 10 µM, first compound 0.001 µM): 62.5%
- viability, T/C (second compound 10 µM, first compound 0.00316 µM): 28.9%
- viability, T/C (second compound 10 µM, first compound 0.01 µM): 4%
- viability, T/C [39]: 0.22%
- viability, T/C [40]: 0.24%
